This note sets out measurements from patent publication EP0435794A1, “Alkenyl- or heteroaryl thio, sulfone, sulfoxy herbicides” (RHONE-POULENC AGROCHIMIE, priority 1989, dated 1991).

Molecules are shown by their SMILES.

Assay type in all cases: in vivo
For data set [1], the system named is Panicum milicaeum. Briefly: Exemple C: selectivity test in field crops, pre-emergence (weed). To be noted: 24 days. From the text: (§1) Exemple C - Essai de sélectivité en grandes cultures avec application herbicide, en prélevée des espèces végétales
(§2) Dans des pots de 7 X 7 X 8 cm remplis de terre agricole légère, on sème un nombre de graines déterminé en fonction de l'espèce végétale et de la grosseur de la graine.
(§3) On recouvre ensuite les graines d'une couche de terre d'environ 3 mm d'épaisseur.
(§4) Les pots sont alors traités par pulvérisation de bouillie en quantité correspondant à une dose volumique d'application de 500 l/ha et contenant la matière active à la concentration désirée.
(§5) La bouillie a été préparée de la même manière qu'à l'exemple A.
(§6) Les pots traités sont ensuite placés dans des bacs destinés à recevoir l'eau d'arrosage, en subirrigation, et maintenus pendant 24 jours à température ambiante sous 70 % d'humidité relative.
(§7) Le relevé est effectué de la façon suivante:
(§8) Au bout de 24 jours, on mesure un pourcentage (D) de destruction du nombre de pieds dans le pot traité par rapport au nombre de plantes dans les pots non traités (témoin). On mesure, sur les plantes traitées restantes, le pourcentage de réduction de taille (RT) par rapport aux plantes témoins.
(§9) Le pourcentage de volume foliaire non détruit par le produit est donc donné par la formule: ([100-D] X [100-RT])/(100)= A [formula]
(§10) Cette valeur A est transformée en notation de 0 à 5 selon l'échelle suivante:
(§11) Ainsi, un produit est jugé comme sélectif vis à vis de la culture lorsque la valeur A notée est de 0 ou 1.
(§12) Les résultats obtenus sont présentés dans l'exemple C pour des doses d'application de 500, 1000, 2000 ou 4000 g de matière active par hectare selon les produits.
(§13) Les espèces végétales utilisées dans cet exemple sont: […]

The subject of data set [2] is Sorghum halepense. The data set is described as above. The following applies: 24 days.
Excerpt: as §1, §2, §3, §4, §5, §6, §7, §8, §9, §10, §11, §12, §13

In data set [3] the test system is Alopecurus myosuroides. Described as above. To be noted: 24 days.
Excerpt: as §1, §2, §3, §4, §5, §6, §7, §8, §9, §10, §11, §12, §13

In data set [4] the test system is Setaria faberii. The data set is described as above. The following applies: 24 days.
Excerpt: as §1, §2, §3, §4, §5, §6, §7, §8, §9, §10, §11, §12, §13

Data set [5] has as its system Echinochloa crus-galli. The description is as above. The following applies: 24 days.
Excerpt: as §1, §2, §3, §4, §5, §6, §7, §8, §9, §10, §11, §12, §13

Data set [6] deals with Digitaria sanguinalis. Described as above. The following applies: 24 days.
Excerpt: as §1, §2, §3, §4, §5, §6, §7, §8, §9, §10, §11, §12, §13

The test system of data set [7] is maïs. As to the kind of experiment: Exemple C: selectivity test in field crops, pre-emergence (crop). Also: ranges in brackets are in %. To be noted: 24 days, 0 or 1 = selective.
Excerpt: as §1, §2, §3, §4, §5, §6, §7, §8, §9, §10, §11, §12
(§14) Les espèces végétales utilisées dans cet exemple sont:
(§15) Comme on peut le voir sur le tableau de résultats de cet exemple C, de nombreux produits présentent une excellente activité antigraminée de prélevée tout en montrant une excellente sélectivité pour 1 ou 2 ou 3 ou 4 des 4 cultures testées = blé, maïs, riz, soja.

For data set [8], the system named is blé. The data set is described as above. The following applies: 24 days, 0 or 1 = selective. Also: ranges in brackets are in %.
Excerpt: as §1, §2, §3, §4, §5, §6, §7, §8, §9, §10, §11, §12, §14, §15

Data set [9] has as its system soja. Described as above. The following applies: 24 days, 0 or 1 = selective. Also: ranges in brackets are in %.
Excerpt: as §1, §2, §3, §4, §5, §6, §7, §8, §9, §10, §11, §12, §14, §15

Data set [10] has as its system riz. Described as above. The following applies: 24 days, 0 or 1 = selective. Also: ranges in brackets are in %.
Excerpt: as §1, §2, §3, §4, §5, §6, §7, §8, §9, §10, §11, §12, §14, §15

Consider `O=S(=O)(CC(O)(CBr)c1ccc(F)c(Cl)c1)c1ccsc1` (stereo not drawn) [compound 65], for which, in data set [1] (dose 0.5 Kg m.a./ha), the “Notation de l'activité herbicide PAN” value is reported as 3 (30 à 50). In addition, the “Notation de l'activité herbicide SOR” value in data set [2] (dose 0.5 Kg m.a./ha) is 5 (O à 10). In addition, the “Notation de l'activité herbicide ALO” value in [3] (dose 0.5 Kg m.a./ha) is 0 (90 à 100). Besides, the “Notation de l'activité herbicide SET” value in data set [4] (dose 0.5 Kg m.a./ha) is on record as 0 (90 à 100). Besides, in data set [5] (dose 0.5 Kg m.a./ha), the “Notation de l'activité herbicide ECh” value is reported as 5 (O à 10). The “Notation de l'activité herbicide DIG” value in data set [6] (dose 0.5 Kg m.a./ha) is reported as 5 (O à 10). Also, the “Notation de l'activité herbicide ZEA” value in data set [7] (dose 0.5 Kg m.a./ha) is 0 (90 à 100). Also, the “Notation de l'activité herbicide TRZ” value in data set [8] (dose 0.5 Kg m.a./ha) was 0 (90 à 100). Further, in data set [9] (dose 0.5 Kg m.a./ha), the “Notation de l'activité herbicide GLY” value was 0 (90 à 100). Further, the “Notation de l'activité herbicide ORY” value in data set [10] (dose 0.5 Kg m.a./ha) is given as 3 (30 à 50).
For `C=C(CS(=O)(=O)c1sc(C)nc1C)c1cc(C)cc(C)c1` [compound 46], the “Notation de l'activité herbicide PAN” value in data set [1] (dose 1 Kg m.a./ha) is recorded as 5 (O à 10). Besides, in data set [2] (dose 1 Kg m.a./ha), the “Notation de l'activité herbicide SOR” value is recorded as 1 (70 à 90). Also, the “Notation de l'activité herbicide ALO” value in [3] (dose 1 Kg m.a./ha) was 5 (O à 10). Moreover, the “Notation de l'activité herbicide SET” value in data set [4] (dose 1 Kg m.a./ha) was 1 (70 à 90). Moreover, the “Notation de l'activité herbicide ECh” value in data set [5] (dose 1 Kg m.a./ha) is reported as 4 (10 à 30). Besides, the “Notation de l'activité herbicide DIG” value in data set [6] (dose 1 Kg m.a./ha) is given as 5 (O à 10). Besides, the “Notation de l'activité herbicide ZEA” value in [7] (dose 1 Kg m.a./ha) is recorded as 0 (90 à 100). Also, the “Notation de l'activité herbicide TRZ” value in data set [8] (dose 1 Kg m.a./ha) is recorded as 0 (90 à 100). Also, the “Notation de l'activité herbicide GLY” value in data set [9] (dose 1 Kg m.a./ha) was 0 (90 à 100). For the same molecule, in data set [10] (dose 1 Kg m.a./ha), the “Notation de l'activité herbicide ORY” value was 0 (90 à 100).
As for `C=C(CS(=O)(=O)/C=C/C)c1ccccc1` [compound 70, (E)-2-phényl 1-(1-propénylsulfonyl)2-propène], the “Notation de l'activité herbicide PAN” value in data set [1] (dose 2 Kg m.a./ha) is given as 3 (30 à 50). Further, the “Notation de l'activité herbicide SOR” value in data set [2] (dose 2 Kg m.a./ha) is listed as 5 (O à 10). The “Notation de l'activité herbicide ALO” value in data set [3] (dose 2 Kg m.a./ha) was 4 (10 à 30). The “Notation de l'activité herbicide SET” value in data set [4] (dose 2 Kg m.a./ha) is 3 (30 à 50). For the same molecule, the “Notation de l'activité herbicide ECh” value in data set [5] (dose 2 Kg m.a./ha) was 5 (O à 10). The “Notation de l'activité herbicide ZEA” value in data set [7] (dose 2 Kg m.a./ha) was 0 (90 à 100). Moreover, the “Notation de l'activité herbicide TRZ” value in [8] (dose 2 Kg m.a./ha) is listed as 2 (50 à 70). In data set [9] (dose 2 Kg m.a./ha), the “Notation de l'activité herbicide GLY” value is 0 (90 à 100). In data set [10] (dose 2 Kg m.a./ha), the “Notation de l'activité herbicide ORY” value is given as 1 (70 à 90).
In the case of `CS(=O)(=O)OCC(O)(CS(=O)(=O)c1cccs1)c1cc(Cl)cc(Cl)c1` (stereo not drawn) [compound 56, 2-(3,5-dichlorophényl) 1-méthylsulfonate 3-(2-thiénylsulfonyl) 2-propanol], the “Notation de l'activité herbicide PAN” value in data set [1] (dose 1 Kg m.a./ha) was 5 (O à 10). The “Notation de l'activité herbicide SOR” value in [2] (dose 1 Kg m.a./ha) is reported as 2 (50 à 70). Further, the “Notation de l'activité herbicide SET” value in data set [4] (dose 1 Kg m.a./ha) is 5 (O à 10). Also, the “Notation de l'activité herbicide ECh” value in [5] (dose 1 Kg m.a./ha) is 5 (O à 10). For the same molecule, in [6] (dose 1 Kg m.a./ha), the “Notation de l'activité herbicide DIG” value is listed as 5 (O à 10). In addition, the “Notation de l'activité herbicide ZEA” value in data set [7] (dose 1 Kg m.a./ha) was 1 (70 à 90). Besides, the “Notation de l'activité herbicide TRZ” value in data set [8] (dose 1 Kg m.a./ha) is on record as 2 (50 à 70). The “Notation de l'activité herbicide GLY” value in data set [9] (dose 1 Kg m.a./ha) was 0 (90 à 100). In [10] (dose 1 Kg m.a./ha), the “Notation de l'activité herbicide ORY” value was 2 (50 à 70).
As to `O=S(=O)(CC(O)(CBr)c1cccc(F)c1)c1cccs1` (stereo not drawn) [compound 53, 1-bromo 2-(3-fluorophényl) 3-(2-thiénylsulfonyl) 2-propanol], the “Notation de l'activité herbicide PAN” value in data set [1] (dose 0.5 Kg m.a./ha) is 1 (70 à 90). The “Notation de l'activité herbicide SOR” value in [2] (dose 0.5 Kg m.a./ha) is given as 4 (10 à 30). Further, in [3] (dose 0.5 Kg m.a./ha), the “Notation de l'activité herbicide ALO” value is listed as 2 (50 à 70). Moreover, the “Notation de l'activité herbicide SET” value in data set [4] (dose 0.5 Kg m.a./ha) was 1 (70 à 90). Also, the “Notation de l'activité herbicide ECh” value in [5] (dose 0.5 Kg m.a./ha) is on record as 4 (10 à 30). Moreover, the “Notation de l'activité herbicide DIG” value in data set [6] (dose 0.5 Kg m.a./ha) is 4 (10 à 30). For the same molecule, the “Notation de l'activité herbicide ZEA” value in data set [7] (dose 0.5 Kg m.a./ha) is 2 (50 à 70). Further, the “Notation de l'activité herbicide TRZ” value in data set [8] (dose 0.5 Kg m.a./ha) was 0 (90 à 100). The “Notation de l'activité herbicide GLY” value in data set [9] (dose 0.5 Kg m.a./ha) is 0 (90 à 100). Further, the “Notation de l'activité herbicide ORY” value in data set [10] (dose 0.5 Kg m.a./ha) was 3 (30 à 50).
